Biological target: T1, GABAB receptor (GABABR1a/GABABR2 heterodimer) (Homo sapiens, UniProt O75899+Q9UBS5)
T1 construct: expressed in transfected cells
Experiment: [35S]-GTPγS binding assay, potency of PAM (GABA dose-response curves with and without test compound)
Assay type: biochemical
Details: potency of the positive allosteric modulator; GABA dose-response in presence of test compound
Text: GABABR1a and GABABR2 were cloned from human brain cDNA and subcloned into pCI-Neo (Promega) and pALTER-1 (Promega), respectively. A GABABR1a-Gαqi5 fusion protein expression vector was constructed using the pCI-Neo-GABABR1a cDNA plasmid and pLEC1-Gαqi5 (Molecular Devices, CA). In order to make the Gαqi5 pertussis toxin insensitive, Cys356 was mutated to Gly using standard PCR methodology with the primers 5′-[…]-3′ (forward) and 5′-GCGGCCG […]-3′ (reverse). The Gαqi5mut cDNA was ligated into the BamHI and NotI sites of pcDNA3.0 (Invitrogen). The GABAB R1a coding sequence was amplified by PCR from pCI-Neo-GABABR1a using the primers, 5′-[…]-3′ (forward) and 5′-[…]-3′ (reverse) and subcloned into the BamHI site of pcDNA3.0-Gαqi5mut.
For generation of a cell line expressing the GABABR1a/GABABR2 heterodimer, GABABR1a plasmid DNA (4 μg) GABABR2 plasmid DNA (4 μg) and lipofectamine (24 μl) were mixed in 5 ml OptiMEM and incubated for 45 minutes at room temperature. The cells were exposed to the transfection medium for 5 hours, which then was replaced with culture medium. The cells were cultured for an additional 10 days before selection agents (300 μg/ml hygromycin and 400 μg/ml geneticin) were added. Twenty-four days after transfection, single cell sorting into 96-well plates by flow cytometry was performed using a FACS Vantage SE (Becton Dickinson, Palo Alto, Calif.). After expansion, the GABAB receptor functional response was tested using the FLIPR assay described below. The clone with the highest functional response was collected, expanded and then subcloned by single cell sorting. The clonal cell line with the highest peak response in the FLIPR was used in the present study.
For generation of a stable cell line expressing GABABR1a-Gαqi5 fusion protein and GABABR2, GABABR1a-Gαqi5mut plasmid DNA (8 μg) GABABR2 plasmid DNA (8 μg) and lipofectamine (24 μl) were mixed in 5 ml OptiMEM and incubated for 45 minutes at room temperature. The cells were exposed to the transfection medium for 5 hours, which then was replaced with culture medium. After forty-eight hours, the cells were detached and seeded in 6 well plates (2000 cells/well) and grown in culture medium supplemented with geneticin (400 μg/ml) and zeocin (250 μg/ml). After 4 days, cells from single colonies were collected and transferred to a 24-well plate. After 10 days, the cell clones were seeded in T-25 flasks and grown for another 16 days before they were tested for GABAB receptor mediated functional response. […] The clonal cell line that gave the highest peak response in the FLIPR was used in the present study.
[^35S]-GTPγS binding assays were performed at 30° C. for 45 min in membrane buffer (100 mM NaCl, 5 mM MgCl2, 1 mM EDTA, 50 mM HEPES, pH 7.4) containing 0.025 μg/μl of membrane protein (prepared from the cell lines described above) with 0.01% bovine serum albumin (fatty acid free), 10 μM GDP, 10 μM DTT and 0.53 nM [^35S]-GTPγS (Amersham-Pharmacia Biotech) in a final volume of 200 μl. Non-specific binding was determined in the presence of 20 μM GTPγS. The reaction was started by the addition of GABA at concentration between 1 mM and 0.1 nM in the presence or absence of the required concentration of PAM. The reaction was terminated by addition of ice-cold wash buffer (50 mM Tris-HCl, 5 mM MgCl2, 50 mM NaCl, pH 7.4) followed by rapid filtration under vacuum through Printed Filtermat A glass fiber filters (Wallac) (0.05% PEI treated) using a Micro 96 Harvester (Skatron Instruments). The filters were dried for 30 min at 50° C., then a paraffin scintillant pad was melted onto the filters and the bound radioactivity was determined using a 1450 Microbeta Trilux (Wallac) scintillation counter.
GABA dose-response curves in the presence and absence of test compounds were constructed using the 4-parameter logistic equation, y=ymax+((ymin−ymax)/1+(x/C)^D), where C=EC50 and D=slope factor.

T1 sequence (Q9UBS5 15-961 limits assumed): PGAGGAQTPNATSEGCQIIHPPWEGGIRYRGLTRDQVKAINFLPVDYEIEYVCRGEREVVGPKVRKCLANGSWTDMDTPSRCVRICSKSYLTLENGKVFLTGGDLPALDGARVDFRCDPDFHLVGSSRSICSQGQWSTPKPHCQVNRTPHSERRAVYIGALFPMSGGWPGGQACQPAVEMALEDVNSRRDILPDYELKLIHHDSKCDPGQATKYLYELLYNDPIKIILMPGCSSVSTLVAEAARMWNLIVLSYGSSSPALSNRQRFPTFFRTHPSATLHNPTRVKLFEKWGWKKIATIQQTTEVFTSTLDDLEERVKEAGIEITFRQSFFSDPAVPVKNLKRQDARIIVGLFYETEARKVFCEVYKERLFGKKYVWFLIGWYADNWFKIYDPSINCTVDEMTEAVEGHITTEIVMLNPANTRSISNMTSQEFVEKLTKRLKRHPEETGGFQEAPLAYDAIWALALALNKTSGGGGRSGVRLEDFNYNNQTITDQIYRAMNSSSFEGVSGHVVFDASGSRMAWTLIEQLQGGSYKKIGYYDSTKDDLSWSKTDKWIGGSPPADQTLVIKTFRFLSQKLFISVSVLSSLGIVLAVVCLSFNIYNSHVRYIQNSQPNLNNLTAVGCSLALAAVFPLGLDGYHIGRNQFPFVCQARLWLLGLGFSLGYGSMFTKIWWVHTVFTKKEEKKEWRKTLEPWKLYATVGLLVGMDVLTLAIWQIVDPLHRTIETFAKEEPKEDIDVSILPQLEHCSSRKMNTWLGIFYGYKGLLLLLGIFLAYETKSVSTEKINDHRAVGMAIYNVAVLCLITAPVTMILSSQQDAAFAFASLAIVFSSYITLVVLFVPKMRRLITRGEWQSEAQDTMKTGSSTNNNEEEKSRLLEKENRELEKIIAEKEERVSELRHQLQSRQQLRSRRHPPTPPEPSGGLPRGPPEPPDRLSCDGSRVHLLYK
T1 sequence (O75899 42-941): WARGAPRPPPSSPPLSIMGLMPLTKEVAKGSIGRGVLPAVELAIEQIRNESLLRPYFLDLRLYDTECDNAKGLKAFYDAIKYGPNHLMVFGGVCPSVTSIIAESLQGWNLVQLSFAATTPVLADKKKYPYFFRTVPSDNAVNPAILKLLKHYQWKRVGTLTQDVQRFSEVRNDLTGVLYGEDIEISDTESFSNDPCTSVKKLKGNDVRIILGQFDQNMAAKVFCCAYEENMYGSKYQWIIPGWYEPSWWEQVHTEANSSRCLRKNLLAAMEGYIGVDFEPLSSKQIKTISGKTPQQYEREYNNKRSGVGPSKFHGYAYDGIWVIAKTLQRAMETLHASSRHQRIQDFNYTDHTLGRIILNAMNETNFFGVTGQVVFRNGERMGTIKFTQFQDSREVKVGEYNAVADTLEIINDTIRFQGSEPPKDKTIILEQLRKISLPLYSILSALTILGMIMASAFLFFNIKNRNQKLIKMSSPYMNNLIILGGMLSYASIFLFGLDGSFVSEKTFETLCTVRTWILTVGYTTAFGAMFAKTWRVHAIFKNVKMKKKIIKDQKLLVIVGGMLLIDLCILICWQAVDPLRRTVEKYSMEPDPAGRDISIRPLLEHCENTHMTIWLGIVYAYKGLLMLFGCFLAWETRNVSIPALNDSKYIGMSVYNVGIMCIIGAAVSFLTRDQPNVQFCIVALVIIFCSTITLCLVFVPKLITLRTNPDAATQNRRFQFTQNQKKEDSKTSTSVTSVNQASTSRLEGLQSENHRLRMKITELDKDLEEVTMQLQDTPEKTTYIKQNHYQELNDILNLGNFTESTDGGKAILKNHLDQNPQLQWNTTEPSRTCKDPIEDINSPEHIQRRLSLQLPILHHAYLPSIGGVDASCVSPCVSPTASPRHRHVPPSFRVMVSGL

| Structure (SMILES) | EC50 [µM] |
| --- | --- |
| CCc1nc2c(c(=O)n(Cc3ccc(Cl)cc3)c(=O)n2CCC(C)(C)C)n1C [Example 2, 1-(4-Chlorobenzyl)-3-(3,3-dimethylbutyl)-8-ethyl-7-methyl-3,7-dihydro-1H-purine-2,6-dione] | 1.5 |
| CCc1nc2c(c(=O)n(Cc3ccc(Cl)cc3)c(=O)n2C[C@H]2CCC(=O)N2)n1C [Example 6, 1-(4-Chlorobenzyl)-8-ethyl-7-methyl-3-{[(2R)-5-oxopyrrolidin-2-yl]methyl}-3,7-dihydro-1H-purine-2,6-dione] | 16.4 |
| CCc1nc2c(c(=O)n(Cc3ccc(Cl)cc3)c(=O)n2CC(=O)c2ccncc2)n1C [Example 7, 1-(4-Chlorobenzyl)-8-ethyl-7-methyl-3-(2-oxo-2-pyridin-4-ylethyl)-3,7-dihydro-1H-purine-2,6-dione] | 7.9 |
| CCc1nc2c(c(=O)n(Cc3ccc(Cl)cc3)c(=O)n2CC(C)C)n1C [Example 8, 1-(4-Chlorobenzyl)-8-ethyl-3-isobutyl-7-methyl-3,7-dihydro-1H-purine-2,6-dione] | 2.7 |
| CCc1nc2c(c(=O)n(Cc3ccc(Cl)cc3)c(=O)n2C[Si](C)(C)C)n1C [Example 9, 1-(4-Chlorobenzyl)-8-ethyl-7-methyl-3-[(trimethylsilyl)methyl]-3,7-dihydro-1H-purine-2,6-dione] | 2.1 |
| C=CCn1c(=O)n(Cc2ccc(Cl)cc2)c(=O)c2c1nc(CC)n2C [Example 12, 3-Allyl-1-(4-chlorobenzyl)-8-ethyl-7-methyl-3,7-dihydro-1H-purine-2,6-dione] | 6 |
| CCc1nc2c(c(=O)n(Cc3ccc(Cl)cc3)c(=O)n2Cc2ccc(Cl)cc2)n1C [Example 13, 1,3-Bis(4-chlorobenzyl)-8-ethyl-7-methyl-3,7-dihydro-1H-purine-2,6-dione] | 5.2 |
| CCc1nc2c(c(=O)n(Cc3ccc(Cl)cc3)c(=O)n2Cc2ccc(OC(F)F)cc2)n1C [Example 19, 1-(4-Chlorobenzyl)-3-[4-(difluoromethoxy)benzyl]-8-ethyl-7-methyl-3,7-dihydro-1H-purine-2,6-dione] | 3.7 |
| CCc1nc2c(c(=O)n(Cc3ccc(Cl)cc3)c(=O)n2CCCOC(C)(C)C)n1C [Example 21, 3-(3-tert-butoxypropyl)-1-(4-chlorobenzyl)-8-ethyl-7-methyl-3,7-dihydro-1H-purine-2,6-dione] | 7.2 |
| CCc1nc2c(c(=O)n(Cc3ccc(Cl)cc3)c(=O)n2CC2COc3ccccc3O2)n1C (stereo not drawn) [Example 24, 1-(4-chlorobenzyl)-3-(2,3-dihydro-1,4-benzodioxin-2-ylmethyl)-8-ethyl-7-methyl-3,7-dihydro-1H-purine-2,6-dione] | 5.1 |
| CCc1nc2c(c(=O)n(Cc3ccc(Cl)cc3)c(=O)n2Cc2ccc(-n3cccn3)cc2)n1C [Example 26, 1-(4-chlorobenzyl)-8-ethyl-7-methyl-3-[4-(1H-pyrazol-1-yl)benzyl]-3,7-dihydro-1H-purine-2,6-dione] | 3.5 |
| CCc1nc2c(c(=O)n(Cc3ccc(Cl)cc3)c(=O)n2CCN(CC)CC)n1C [Example 27, 1-(4-chlorobenzyl)-3-[2-(diethylamino)ethyl]-8-ethyl-7-methyl-3,7-dihydro-1H-purine-2,6-dione] | 15.6 |
| CCc1nc2c(c(=O)n(Cc3ccc(Cl)cc3)c(=O)n2CCO[Si](C)(C)C(C)(C)C)n1C [Example 29, 3-(2-{[tert-butyl(dimethyl)silyl]oxy}ethyl)-1-(4-chlorobenzyl)-8-ethyl-7-methyl-3,7-dihydro-1H-purine-2,6-dione] | 8.6 |
| CCc1nc2c(c(=O)n(Cc3ccc(Cl)cc3)c(=O)n2Cc2c(-c3ccccc3)noc2C)n1C [Example 30, 1-(4-chlorobenzyl)-8-ethyl-7-methyl-3-[(5-methyl-3-phenylisoxazol-4-yl)methyl]-3,7-dihydro-1H-purine-2,6-dione] | 4.6 |

Further compounds by falling EC50, results first:

| EC50 [µM] | Structure (SMILES) |
| --- | --- |
| 14.6 | CCc1nc2c(c(=O)n(Cc3ccc(Cl)cc3)c(=O)n2C[C@@H]2CCC(=O)N2)n1C [Example 10, 1-(4-Chlorobenzyl)-8-ethyl-7-methyl-3-{[(2S)-5-oxopyrrolidin-2-yl]methyl}-3,7-dihydro-1H-purine-2,6-dione] |
| 12.3 | CCc1nc2c(c(=O)n(Cc3ccc(Cl)cc3)c(=O)n2CC2OCCO2)n1C [Example 14, 1-(4-Chlorobenzyl)-3-(1,3-dioxolan-2-ylmethyl)-8-ethyl-7-methyl-3,7-dihydro-1H-purine-2,6-dione] |
| 8.5 | CCc1nc2c(c(=O)n(Cc3ccc(Cl)cc3)c(=O)n2CC(=O)OC)n1C [Example 11, Methyl [1-(4-chlorobenzyl)-8-ethyl-7-methyl-2,6-dioxo-1,2,6,7-tetrahydro-3H-purin-3-yl]acetate] |
| 7.8 | CCc1nc2c(c(=O)n(Cc3ccc(Cl)cc3)c(=O)n2Cc2ccccn2)n1C [Example 15, 1-(4-Chlorobenzyl)-8-ethyl-7-methyl-3-(pyridin-2-ylmethyl)-3,7-dihydro-1H-purine-2,6-dione] |
| 6.8 | CCc1nc2c(c(=O)n(Cc3ccc(Cl)cc3)c(=O)n2Cc2cc(C)on2)n1C [Example 16, 1-(4-Chlorobenzyl)-8-ethyl-7-methyl-3-[(5-methylisoxazol-3-yl)methyl]-3,7-dihydro-1H-purine-2,6-dione] |
| 6.33 | CCc1nc2c(c(=O)n(Cc3ccc(Cl)cc3)c(=O)n2Cc2ccccc2)n1C [Example 1, 3-benzyl-1-(4-chlorobenzyl)-8-ethyl-7-methyl-3,7-dihydro-1H-purine-2,6-dione] |
| 5.3 | CCc1nc2c(c(=O)n(Cc3ccc(Cl)cc3)c(=O)n2Cc2ccc(SC(F)(F)F)cc2)n1C [Example 25, 1-(4-chlorobenzyl)-8-ethyl-7-methyl-3-{4-[(trifluoromethyl)thio]benzyl}-3,7-dihydro-1H-purine-2,6-dione] |
| 3.3 | CCc1nc2c(c(=O)n(Cc3ccc(Cl)cc3)c(=O)n2Cc2cccnc2)n1C [Example 18, 1-(4-Chlorobenzyl)-8-ethyl-7-methyl-3-(pyridin-3-ylmethyl)-3,7-dihydro-1H-purine-2,6-dione] |
| 3 | CCc1nc2c(c(=O)n(Cc3ccc(Cl)cc3)c(=O)n2CC2CCCCC2)n1C [Example 20, 1-(4-Chlorobenzyl)-3-(cyclohexylmethyl)-8-ethyl-7-methyl-3,7-dihydro-1H-purine-2,6-dione] |
| 2.6 | CCc1nc2c(c(=O)n(Cc3ccc(Cl)cc3)c(=O)n2CC(=O)c2ccccc2)n1C [Example 28, 1-(4-chlorobenzyl)-8-ethyl-7-methyl-3-(2-oxo-2-phenylethyl)-3,7-dihydro-1H-purine-2,6-dione] |
| 2.5 | CCc1nc2c(c(=O)n(Cc3ccc(Cl)cc3)c(=O)n2Cc2ccc(S(C)(=O)=O)cc2)n1C [Example 22, 1-(4-chlorobenzyl)-8-ethyl-7-methyl-3-[4-(methylsulfonyl)benzyl]-3,7-dihydro-1H-purine-2,6-dione] |
| 2.1 | CCc1nc2c(c(=O)n(Cc3ccc(Cl)cc3)c(=O)n2CC(O)C(F)(F)F)n1C (stereo not drawn) [Example 23, 1-(4-chlorobenzyl)-8-ethyl-7-methyl-3-(3,3,3-trifluoro-2-hydroxypropyl)-3,7-dihydro-1H-purine-2,6-dione] |
| 1.6 | CCc1nc2c(c(=O)n(Cc3ccc(Cl)cc3)c(=O)n2CC(=O)C(C)(C)C)n1C [Example 4, 1-(4-Chlorobenzyl)-3-(3,3-dimethyl-2-oxobutyl)-8-ethyl-7-methyl-3,7-dihydro-1H-purine-2,6-dione] |

— patent US20090023704A1, “Novel Compounds 737” (ASTRAZENECA AB, priority 2007, published 2009)
